Source: ChEMBL document CHEMBL4808209 (J Med Chem, 2021)
Converted amounts (≈) assume the structure as drawn.

What was measured:
[1] = Inhibition of phosphorylated FGFR2alpha in human KATO III stomach cancer cell line spiked in human whole blood incubated for 4 hrs by ELISA; type: tissue-based
[2] = AUC in Sprague-Dawley rat at 2 mg/kg, po or 1 mg/kg, iv administered as cassette dose measured after 24 hrs; type: ADME, organism-based; set-up: time 24 hrs, dose 2 mg/kg; details: in vivo
[3] = Oral bioavailability in Sprague-Dawley rat at 2 mg/kg administered as cassette dose measured after 24 hrs; type: ADME, organism-based; details: in vivo
[4] = Clearance in cynomolgus monkey at 2 mg/kg, po or 1 mg/kg, iv administered as cassette dose measured after 24 hrs relative to hepatic blood flow; type: ADME, organism-based, Macaca fascicularis; details: in vivo
[5] = Volume of distribution at steady state in cynomolgus monkey at 2 mg/kg, po or 1 mg/kg, iv administered as cassette dose measured after 24 hrs; type: ADME, organism-based, Macaca fascicularis; details: in vivo, read-out: Vdss
[6] = Oral bioavailability in cynomolgus monkey at 2 mg/kg administered as cassette dose measured after 24 hrs; type: ADME, organism-based, Macaca fascicularis; details: in vivo
[7] = Clearance in Sprague-Dawley rat at 2 mg/kg, po or 1 mg/kg, iv administered as cassette dose measured after 24 hrs relative to hepatic blood flow; type: ADME, organism-based; details: in vivo
[8] = Half life in cynomolgus monkey at 2 mg/kg, po or 1 mg/kg, iv administered as cassette dose measured after 24 hrs; type: ADME, organism-based, Macaca fascicularis; details: in vivo
[9] = Solubility of the compound in FaSSIF by HPLC analysis; type: physicochemical
[10] = Intrinsic clearance in human liver microsomes at 1 uM measured up to 30 mins in presence of NADPH by LC/MS analysis; type: ADME, Microsome; details: read-out: CLH (converted)
[11] = Permeability across apical to basolateral membrane in human Caco-2 cells at 50 uM incubated for 120 mins by LC-MS/MS analysis; type: ADME, cell-based; details: read-out: permeability
[12] = Half life in Sprague-Dawley rat at 2 mg/kg, po or 1 mg/kg, iv administered as cassette dose measured after 24 hrs; type: ADME, organism-based; details: in vivo
[13] = Volume of distribution at steady state in Sprague-Dawley rat at 2 mg/kg, po or 1 mg/kg, iv administered as cassette dose measured after 24 hrs; type: ADME, organism-based; details: in vivo, read-out: Vdss
[14] = AUC in cynomolgus monkey at 2 mg/kg, po or 1 mg/kg, iv administered as cassette dose measured after 24 hrs; type: ADME, organism-based, Macaca fascicularis; set-up: time 24 hrs, dose 2 mg/kg; details: in vivo
[15] = biological target: Fibroblast growth factor receptor 3 (Homo sapiens, UniProt P22607); assay: Inhibition of human FGFR3 using biotinylated-EQEDEPEGDYFEWLE peptide as substrate incubated for 1 hr in presence of ATP by FRET assay
[16] = biological target: Fibroblast growth factor receptor 1 (Homo sapiens, UniProt P11362); assay: Inhibition of human FGFR1 using biotinylated-EQEDEPEGDYFEWLE peptide as substrate incubated for 1 hr in presence of ATP by FRET assay
NCI-H1581 = assay: Antiproliferative activity against human NCI-H1581 cells assessed as inhibition of cell proliferation incubated for 3 days by Cell Titer Aqueous96 one solution reagent assay; details: NCI-H1581, 72 h
[17] = biological target: Vascular endothelial growth factor receptor 2 (Homo sapiens, UniProt P35968); assay: Inhibition of human recombinant N-terminal His6-tagged VEGFR2 expressed in baculovirus infected Sf21insect cells using biotin-labeled EQEDEPEGDYFEWLE peptide as substrate incubated for 20 mins in presence of ATP by plate reader assay; set-up: species or system Sf21
[18] = biological target: Fibroblast growth factor receptor 2 (Homo sapiens, UniProt P21802); assay: Inhibition of human FGFR2 using biotinylated-EQEDEPEGDYFEWLE peptide as substrate incubated for 1 hr in presence of ATP by FRET assay
[19] = biological target: Tyrosine-protein kinase JAK2 (Homo sapiens, UniProt O60674); assay: Inhibition of JAK2 (unknown origin)
[20] = Antiproliferative activity against human B49 assessed as inhibition of cell proliferation incubated for 3 days by Cell Titer Aqueous96 one solution reagent assay; details: KATO III, 72 h
[21] = Volume of distribution at steady state in cynomolgus monkey at 2 mg/kg, po or 0.5 mg/kg, iv administered as cassette dose measured after 24 hrs; type: ADME, organism-based, Macaca fascicularis; details: in vivo, read-out: Vdss
[22] = AUC in cynomolgus monkey at 2 mg/kg, po or 0.5 mg/kg, iv administered as cassette dose measured after 24 hrs; type: ADME, organism-based, Macaca fascicularis; set-up: dose 2 mg/kg, time 24 hrs; details: in vivo
[23] = Half life in cynomolgus monkey at 2 mg/kg, po or 0.5 mg/kg, iv administered as cassette dose measured after 24 hrs; type: ADME, organism-based, Macaca fascicularis; details: in vivo
[24] = Clearance in cynomolgus monkey at 2 mg/kg, po or 0.5 mg/kg, iv administered as cassette dose measured after 24 hrs relative to hepatic blood flow; type: ADME, organism-based, Macaca fascicularis; details: in vivo

Sequence of Vascular endothelial growth factor receptor 2 (P35968 whole entry): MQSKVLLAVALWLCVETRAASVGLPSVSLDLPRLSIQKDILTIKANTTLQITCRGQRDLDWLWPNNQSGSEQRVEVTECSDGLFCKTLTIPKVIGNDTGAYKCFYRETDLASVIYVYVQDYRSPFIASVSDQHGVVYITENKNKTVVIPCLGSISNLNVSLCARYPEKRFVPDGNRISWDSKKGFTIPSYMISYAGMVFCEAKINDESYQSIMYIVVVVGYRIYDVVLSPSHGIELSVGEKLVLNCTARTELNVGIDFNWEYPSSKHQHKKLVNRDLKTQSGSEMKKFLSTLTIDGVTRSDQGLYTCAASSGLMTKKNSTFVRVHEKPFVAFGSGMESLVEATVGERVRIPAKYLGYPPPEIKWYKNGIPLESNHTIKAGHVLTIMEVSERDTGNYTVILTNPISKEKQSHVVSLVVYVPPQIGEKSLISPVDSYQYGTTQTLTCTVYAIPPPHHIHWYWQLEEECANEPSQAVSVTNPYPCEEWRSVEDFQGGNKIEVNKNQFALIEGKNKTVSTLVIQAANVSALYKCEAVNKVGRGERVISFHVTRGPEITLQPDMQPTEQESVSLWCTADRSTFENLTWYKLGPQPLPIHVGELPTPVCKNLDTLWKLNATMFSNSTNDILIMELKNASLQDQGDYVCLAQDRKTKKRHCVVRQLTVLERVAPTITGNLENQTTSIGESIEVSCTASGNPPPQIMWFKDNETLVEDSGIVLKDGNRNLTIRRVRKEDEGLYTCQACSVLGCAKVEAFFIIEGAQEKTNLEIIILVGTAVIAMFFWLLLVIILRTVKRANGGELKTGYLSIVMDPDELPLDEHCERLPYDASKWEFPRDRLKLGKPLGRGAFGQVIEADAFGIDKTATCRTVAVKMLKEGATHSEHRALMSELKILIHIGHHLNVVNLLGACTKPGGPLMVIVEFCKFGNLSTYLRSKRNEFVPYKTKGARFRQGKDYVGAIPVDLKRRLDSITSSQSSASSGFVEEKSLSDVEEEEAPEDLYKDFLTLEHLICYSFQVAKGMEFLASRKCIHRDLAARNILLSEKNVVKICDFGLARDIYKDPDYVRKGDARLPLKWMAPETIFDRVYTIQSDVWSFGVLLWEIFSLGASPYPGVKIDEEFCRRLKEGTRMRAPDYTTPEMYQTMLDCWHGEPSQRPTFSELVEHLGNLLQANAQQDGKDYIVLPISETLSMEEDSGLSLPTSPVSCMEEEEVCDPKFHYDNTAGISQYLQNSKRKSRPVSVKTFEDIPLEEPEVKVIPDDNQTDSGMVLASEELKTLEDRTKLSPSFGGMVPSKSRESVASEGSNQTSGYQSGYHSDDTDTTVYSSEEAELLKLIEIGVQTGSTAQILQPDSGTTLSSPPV
Sequence of Tyrosine-protein kinase JAK2 (O60674 whole entry): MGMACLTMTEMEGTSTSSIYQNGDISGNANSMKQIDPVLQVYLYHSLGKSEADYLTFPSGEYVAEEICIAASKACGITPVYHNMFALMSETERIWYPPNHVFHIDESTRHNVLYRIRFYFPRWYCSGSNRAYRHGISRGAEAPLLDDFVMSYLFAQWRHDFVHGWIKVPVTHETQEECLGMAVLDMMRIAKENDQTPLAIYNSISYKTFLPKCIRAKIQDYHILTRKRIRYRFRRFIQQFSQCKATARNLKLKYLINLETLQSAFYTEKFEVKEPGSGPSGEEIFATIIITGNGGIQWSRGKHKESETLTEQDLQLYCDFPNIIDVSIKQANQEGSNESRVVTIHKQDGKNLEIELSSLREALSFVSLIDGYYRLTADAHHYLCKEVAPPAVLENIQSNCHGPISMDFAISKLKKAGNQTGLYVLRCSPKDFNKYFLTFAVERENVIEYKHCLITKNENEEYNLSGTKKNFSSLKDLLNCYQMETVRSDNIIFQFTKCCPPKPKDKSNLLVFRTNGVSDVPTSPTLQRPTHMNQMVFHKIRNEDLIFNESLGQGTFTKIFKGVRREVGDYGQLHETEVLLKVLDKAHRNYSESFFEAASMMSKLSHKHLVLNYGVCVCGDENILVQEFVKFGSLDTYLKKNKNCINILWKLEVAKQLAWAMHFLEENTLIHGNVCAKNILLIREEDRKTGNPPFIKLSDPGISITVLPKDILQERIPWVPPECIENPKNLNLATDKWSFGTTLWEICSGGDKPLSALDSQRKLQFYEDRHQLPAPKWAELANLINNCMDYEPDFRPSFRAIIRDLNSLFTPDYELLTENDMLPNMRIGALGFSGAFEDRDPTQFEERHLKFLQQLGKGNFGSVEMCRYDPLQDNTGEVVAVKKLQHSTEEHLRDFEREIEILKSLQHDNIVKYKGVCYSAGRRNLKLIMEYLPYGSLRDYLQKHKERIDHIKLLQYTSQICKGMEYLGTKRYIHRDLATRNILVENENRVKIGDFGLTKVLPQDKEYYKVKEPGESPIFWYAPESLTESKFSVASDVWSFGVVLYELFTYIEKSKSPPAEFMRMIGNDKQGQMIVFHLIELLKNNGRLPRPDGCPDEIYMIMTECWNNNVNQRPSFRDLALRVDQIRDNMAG
Sequence of Fibroblast growth factor receptor 1 (P11362 whole entry): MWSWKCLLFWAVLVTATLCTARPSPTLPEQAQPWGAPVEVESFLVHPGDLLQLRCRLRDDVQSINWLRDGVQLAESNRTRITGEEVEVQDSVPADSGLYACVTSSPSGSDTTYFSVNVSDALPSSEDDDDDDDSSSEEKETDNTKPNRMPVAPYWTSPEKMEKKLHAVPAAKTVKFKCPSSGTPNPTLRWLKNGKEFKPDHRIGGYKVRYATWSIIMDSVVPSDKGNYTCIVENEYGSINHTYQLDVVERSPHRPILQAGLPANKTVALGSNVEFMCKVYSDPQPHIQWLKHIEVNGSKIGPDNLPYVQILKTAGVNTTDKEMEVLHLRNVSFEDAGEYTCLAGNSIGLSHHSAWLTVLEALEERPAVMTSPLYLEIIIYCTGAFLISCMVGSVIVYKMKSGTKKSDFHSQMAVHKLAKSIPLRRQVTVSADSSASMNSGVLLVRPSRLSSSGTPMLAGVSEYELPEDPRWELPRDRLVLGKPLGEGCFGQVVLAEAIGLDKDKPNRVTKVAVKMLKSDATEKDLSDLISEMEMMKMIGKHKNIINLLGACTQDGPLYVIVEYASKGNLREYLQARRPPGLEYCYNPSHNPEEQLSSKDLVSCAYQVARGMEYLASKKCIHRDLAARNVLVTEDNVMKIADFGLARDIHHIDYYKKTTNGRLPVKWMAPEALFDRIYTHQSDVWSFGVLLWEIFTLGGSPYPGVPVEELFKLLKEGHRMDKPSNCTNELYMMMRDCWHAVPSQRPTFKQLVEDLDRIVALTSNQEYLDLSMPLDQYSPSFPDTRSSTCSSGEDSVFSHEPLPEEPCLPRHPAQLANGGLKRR
Sequence of Fibroblast growth factor receptor 3 (P22607 whole entry): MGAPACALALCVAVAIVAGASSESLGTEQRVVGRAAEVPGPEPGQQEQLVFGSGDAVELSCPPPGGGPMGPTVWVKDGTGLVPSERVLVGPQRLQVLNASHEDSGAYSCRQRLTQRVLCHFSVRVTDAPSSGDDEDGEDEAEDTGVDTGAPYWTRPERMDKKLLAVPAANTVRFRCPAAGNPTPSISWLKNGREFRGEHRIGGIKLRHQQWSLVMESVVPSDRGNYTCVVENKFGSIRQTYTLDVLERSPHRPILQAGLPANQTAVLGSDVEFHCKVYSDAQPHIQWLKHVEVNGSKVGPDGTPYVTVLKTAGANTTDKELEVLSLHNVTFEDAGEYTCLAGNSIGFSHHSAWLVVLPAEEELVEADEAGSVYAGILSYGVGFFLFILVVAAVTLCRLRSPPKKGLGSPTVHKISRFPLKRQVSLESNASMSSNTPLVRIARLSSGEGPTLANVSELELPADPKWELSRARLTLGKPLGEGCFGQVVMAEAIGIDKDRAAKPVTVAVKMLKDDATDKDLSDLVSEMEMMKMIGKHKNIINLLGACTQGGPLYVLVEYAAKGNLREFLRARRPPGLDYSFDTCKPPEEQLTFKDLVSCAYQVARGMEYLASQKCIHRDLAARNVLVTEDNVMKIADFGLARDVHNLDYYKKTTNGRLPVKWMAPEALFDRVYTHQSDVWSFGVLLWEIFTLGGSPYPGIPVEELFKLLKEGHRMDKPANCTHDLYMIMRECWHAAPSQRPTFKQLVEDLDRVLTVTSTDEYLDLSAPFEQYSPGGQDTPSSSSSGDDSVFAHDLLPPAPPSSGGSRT
Sequence of Fibroblast growth factor receptor 2 (P21802 whole entry): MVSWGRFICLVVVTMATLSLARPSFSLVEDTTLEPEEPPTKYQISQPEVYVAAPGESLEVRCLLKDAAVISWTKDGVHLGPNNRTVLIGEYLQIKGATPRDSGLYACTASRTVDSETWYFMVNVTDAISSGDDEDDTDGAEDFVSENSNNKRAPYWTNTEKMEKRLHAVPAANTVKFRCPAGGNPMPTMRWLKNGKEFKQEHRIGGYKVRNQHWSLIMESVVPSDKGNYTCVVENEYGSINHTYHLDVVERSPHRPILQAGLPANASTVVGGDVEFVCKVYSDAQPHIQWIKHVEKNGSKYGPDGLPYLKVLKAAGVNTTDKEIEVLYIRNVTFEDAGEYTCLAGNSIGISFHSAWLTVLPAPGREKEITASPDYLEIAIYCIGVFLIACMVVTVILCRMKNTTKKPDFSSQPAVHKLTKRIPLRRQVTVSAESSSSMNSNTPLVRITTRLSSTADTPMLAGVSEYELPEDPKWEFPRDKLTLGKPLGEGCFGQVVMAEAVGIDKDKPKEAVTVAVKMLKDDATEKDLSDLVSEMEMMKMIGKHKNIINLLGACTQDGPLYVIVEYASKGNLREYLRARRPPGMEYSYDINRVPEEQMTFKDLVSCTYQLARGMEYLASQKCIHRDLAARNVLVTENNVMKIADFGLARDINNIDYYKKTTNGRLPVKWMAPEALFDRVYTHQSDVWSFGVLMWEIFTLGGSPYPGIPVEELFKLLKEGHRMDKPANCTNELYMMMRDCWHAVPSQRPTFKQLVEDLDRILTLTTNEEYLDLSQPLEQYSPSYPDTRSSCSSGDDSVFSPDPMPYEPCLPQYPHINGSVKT

Q: For `CCN1C(=O)N(c2c(F)c(OC)cc(OC)c2F)Cc2cnc3[nH]ncc3c21`, which IC50 [1] is on record?
A: 18 nM

Q: What about the AUC at 24 h [2] of the same molecule?
A: 8 µM·h

Q: And the bioavailability [3]?
A: > 100%

Q: What about the CL [4] of the same molecule?
A: 12%

Q: What about the Vd [5] of the same molecule?
A: 0.25 L/kg

Q: And the bioavailability [6]?
A: 16%

Q: What about the CL [7] of the same molecule?
A: 20%

Q: And the half-life [8]?
A: 1.6 h

Q: And the solubility [9]?
A: 3 µg/mL (≈ 7.7 µM)

Q: What about the CLint scaled at 1 µM [10] of the same molecule?
A: 15 mL/min/kg

Q: And the Papp A→B at 2 h, 50 µM [11]?
A: 8.3 ×10⁻⁶ cm/s

Q: What about the half-life [12] of the same molecule?
A: 0.7 h

Q: And the Vd [13]?
A: 0.47 L/kg

Q: What about the AUC at 24 h [14] of the same molecule?
A: 2.64 µM·h

Q: With `COc1cc(OC)c(F)c(N2Cc3cnc4[nH]ccc4c3N(CCO)C2=O)c1F` as the molecule, how does the IC50 [1] read?
A: 8.2 nM

Q: And the AUC at 24 h [2]?
A: 1.8 µM·h

Q: And the bioavailability [3]?
A: 50%

Q: And the CL [4]?
A: 9%

Q: And the Vd [5]?
A: 0.09 L/kg

Q: And the bioavailability [6]?
A: 2%

Q: What about the CL [7] of the same molecule?
A: 42%

Q: And the half-life [8]?
A: 1.1 h

Q: What about the solubility [9] of the same molecule?
A: 4.4 µg/mL (≈ 10.9 µM)

Q: And the CLint scaled at 1 µM [10]?
A: 15 mL/min/kg

Q: What about the Papp A→B at 2 h, 50 µM [11] of the same molecule?
A: 5.5 ×10⁻⁶ cm/s

Q: What about the half-life [12] of the same molecule?
A: 1.3 h

Q: What about the Vd [13] of the same molecule?
A: 0.75 L/kg

Q: And the AUC at 24 h [14]?
A: 0.504 µM·h

Q: Which IC50 [1] does the source give for `COc1cc(OC)c(F)c(N2Cc3cnc4[nH]c(C(=O)N(C)C)cc4c3N(C)C2=O)c1F` here?
A: 6 nM

Q: And the AUC at 24 h [2]?
A: 23 µM·h

Q: And the bioavailability [3]?
A: 46%

Q: And the CL [4]?
A: 31%

Q: And the Vd [5]?
A: 0.27 L/kg

Q: And the bioavailability [6]?
A: 1%

Q: And the CL [7]?
A: 3%

Q: What about the half-life [8] of the same molecule?
A: 0.6 h

Q: And the solubility [9]?
A: 2 µg/mL (≈ 4.49 µM)

Q: And the half-life [12]?
A: 1.2 h

Q: What about the Vd [13] of the same molecule?
A: 0.23 L/kg

Q: And the AUC at 24 h [14]?
A: 0.07 µM·h

Q: For `COc1cc(OC)cc(N2Cc3cnc4[nH]ccc4c3N(C)C2=O)c1`, which IC50 [15] is on record?
A: 5.7 nM

Q: And the IC50 [16]?
A: 7.5 nM

Q: And the IC50 (NCI-H1581)?
A: 40 nM

Q: What about the IC50 [17] of the same molecule?
A: 452 nM

Q: What about the IC50 [18] of the same molecule?
A: 4.4 nM

Q: What about the IC50 [19] of the same molecule?
A: > 10000 nM

Q: And the IC50 [20]?
A: 42 nM

Q: With `COc1cc(OC)c(F)c(N2Cc3cnc4[nH]cnc4c3N(C)C2=O)c1F` as the molecule, how does the IC50 [1] read?
A: 22 nM

Q: What about the AUC at 24 h [2] of the same molecule?
A: 10.8 µM·h

Q: What about the bioavailability [3] of the same molecule?
A: > 100%

Q: And the CL [4]?
A: 29%

Q: What about the Vd [5] of the same molecule?
A: 0.27 L/kg

Q: What about the bioavailability [6] of the same molecule?
A: 6%

Q: And the CL [7]?
A: 29%

Q: And the half-life [8]?
A: 0.9 h

Q: What about the solubility [9] of the same molecule?
A: 21 µg/mL (≈ 56 µM)

Q: What about the CLint scaled at 1 µM [10] of the same molecule?
A: 10 mL/min/kg

Q: And the Papp A→B at 2 h, 50 µM [11]?
A: 6.8 ×10⁻⁶ cm/s

Q: What about the half-life [12] of the same molecule?
A: 1.9 h

Q: What about the Vd [13] of the same molecule?
A: 0.99 L/kg

Q: What about the AUC at 24 h [14] of the same molecule?
A: 0.442 µM·h

Q: Which results are given for `COc1cc(OC)c(F)c(N2Cc3cnc4[nH]ncc4c3N(C)C2=O)c1F`?
A: IC50 [1]: 32 nM; AUC at 24 h [2]: 8.3 µM·h; bioavailability [3]: > 100%; Vd [21]: 0.4 L/kg; bioavailability [6]: 21%; AUC at 24 h [22]: 1.78 µM·h; half-life [23]: 0.8 h; CL [7]: 27%; solubility [9]: 4 µg/mL (≈ 10.7 µM); CLint scaled at 1 µM [10]: 8.33 mL/min/kg; Papp A→B at 2 h, 50 µM [11]: 8.1 ×10⁻⁶ cm/s; CL [24]: 21%; half-life [12]: 0.8 h; Vd [13]: 0.64 L/kg

Q: Which IC50 [16] does the source give for `COc1cc(CCc2cnc3[nH]ccc3c2)cc(OC)c1` here?
A: 83 nM

Q: And the IC50 [17]?
A: 1680 nM

Q: What about the IC50 [19] of the same molecule?
A: > 10000 nM
